Measurements reported in PubChem BioAssay (NCI).
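Growth conditions: 96-well plates. Treatment: test compound, 48 hours, 5 concentrations. Analysis: linear interpolation between bracketing concentrations; unreached endpoints set to highest concentration. GI50 is the concentration that inhibits growth by half. TGI: total growth inhibition.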

How the values were obtained:
Experiment in all cases: NCI anticancer screen, dose series, 48 h; in the data active means GI50 below about 0.43 µM; inactive means the rest
[1] = tested on: UACC-257 melanoma
[2] = tested on: NCI-H226 lung
[3] = tested on: DU-145 prostate
[4] = tested on: HCT-15 colon
[5] = tested on: HOP-92 NSCLC
[6] = tested on: 786-0 renal
[7] = tested on: SF-268 CNS
[8] = tested on: NCI-H460 lung
[9] = tested on: SK-MEL-5 melanoma
[10] = tested on: COLO 205 colon
[11] = tested on: MCF7 breast
[12] = tested on: CAKI-1 renal
[13] = tested on: OVCAR-5 ovarian
[14] = tested on: SF-295 CNS
[15] = tested on: RPMI-8226 leukemia
[16] = tested on: HT29 colon
[17] = tested on: UACC-62 melanoma
[18] = tested on: SR leukemia
[19] = tested on: SF-539 CNS
[20] = tested on: TK-10 renal
[21] = tested on: NCI/ADR-RES ovarian
[22] = tested on: HCT-116 colon
[23] = tested on: EKVX NSCLC
[24] = tested on: BT-549 breast
[25] = tested on: SN12C renal
[26] = tested on: MDA-MB-231 breast
[27] = tested on: SNB-75 CNS
[28] = tested on: HOP-62 NSCLC
[29] = tested on: OVCAR-4 ovarian
[30] = tested on: UO-31 renal
[31] = tested on: A549 NSCLC
[32] = tested on: A498 renal
[33] = tested on: OVCAR-8 ovarian
[34] = tested on: SK-OV-3 ovarian
[35] = tested on: HL-60(TB) leukemia
[36] = tested on: RXF 393 renal
[37] = tested on: LOX IMVI melanoma
[38] = tested on: M14 melanoma
[39] = tested on: SNB-19 CNS
[40] = tested on: OVCAR-3 ovarian
[41] = tested on: IGROV1 ovarian
[42] = tested on: MALME-3M melanoma
[43] = tested on: SW-620 colon
[44] = tested on: MOLT-4 leukemia
[45] = tested on: U251 CNS
[46] = tested on: HCC-2998 colon
[47] = tested on: NCI-H522 lung
[48] = tested on: KM12 colon
[49] = tested on: SK-MEL-2 melanoma
[50] = tested on: NCI-H23 lung
[51] = tested on: MDA-MB-435
[52] = tested on: SK-MEL-28 melanoma
[53] = tested on: CCRF-CEM leukemia
[54] = tested on: ACHN renal
[55] = tested on: HS 578T breast
[56] = tested on: T-47D breast
[57] = tested on: K-562 leukemia
[58] = tested on: PC-3 prostate

c1cc(CN2CCCNCCNCCCNCC2)ccc1CN1CCCNCCNCCCNCC1
inactive: GI50 [1] > 100 µM | GI50 [2] > 100 µM | GI50 [3] > 100 µM | GI50 [4] > 100 µM | GI50 [5] > 100 µM | GI50 [6] > 100 µM | GI50 [7] > 100 µM | GI50 [8] > 100 µM | GI50 [9] > 100 µM | GI50 [10] > 100 µM | GI50 [11] > 100 µM | GI50 [12] > 100 µM | GI50 [13] > 100 µM | GI50 [14] > 100 µM | GI50 [15] > 100 µM | GI50 [16] > 100 µM | GI50 [17] > 100 µM | GI50 [18] > 100 µM | GI50 [19] > 100 µM | GI50 [20] > 100 µM | GI50 [21] > 100 µM | GI50 [22] > 100 µM | GI50 [23] > 100 µM | GI50 [24] > 100 µM | GI50 [25] > 100 µM | GI50 [26] > 100 µM | GI50 [27] > 100 µM | GI50 [28] > 100 µM | GI50 [29] > 100 µM | GI50 [30] > 100 µM | GI50 [31] > 100 µM | GI50 [32] > 100 µM | GI50 [33] > 100 µM | GI50 [34] > 100 µM | GI50 [35] > 100 µM | GI50 [36] > 100 µM | GI50 [37] > 100 µM | GI50 [38] > 100 µM | GI50 [39] > 100 µM | GI50 [40] > 100 µM | GI50 [41] > 100 µM | GI50 [42] > 100 µM | GI50 [43] > 100 µM | GI50 [44] > 100 µM | GI50 [45] > 100 µM | GI50 [46] > 100 µM | GI50 [47] > 100 µM | GI50 [48] > 100 µM | GI50 [49] > 100 µM | GI50 [50] > 100 µM | GI50 [51] > 100 µM | GI50 [52] > 100 µM | GI50 [53] > 100 µM | GI50 [54] > 100 µM | GI50 [55] > 100 µM | GI50 [56] > 100 µM | GI50 [57] > 100 µM | GI50 [58] > 100 µM
> 100 µM: TGI [1] | TGI [2] | TGI [3] | TGI [4] | TGI [5] | TGI [6] | TGI [7] | TGI [8] | TGI [9] | TGI [10] | TGI [11] | TGI [12] | TGI [13] | TGI [14] | TGI [15] | TGI [16] | TGI [17] | TGI [18] | TGI [19] | TGI [20] | TGI [21] | TGI [22] | TGI [23] | TGI [24] | TGI [25] | TGI [26] | TGI [27] | TGI [28] | TGI [29] | TGI [30] | TGI [31] | TGI [32] | TGI [33] | TGI [34] | TGI [35] | TGI [36] | TGI [37] | TGI [38] | TGI [39] | TGI [40] | TGI [41] | TGI [42] | TGI [43] | TGI [44] | TGI [45] | TGI [46] | TGI [47] | TGI [48] | TGI [49] | TGI [50] | TGI [51] | TGI [52] | TGI [53] | TGI [54] | TGI [55] | TGI [56] | TGI [57] | TGI [58]

Clc1ccccc1[C@@H]1C[C@@H]2Cc3cc(Br)c4ccccc4c3N1O2
35.6 µM: TGI [5]
6.51 µM: TGI [47]
60.2 µM: TGI [32]
20.4 µM: TGI [51]
> 100 µM: TGI [1] | TGI [2] | TGI [3] | TGI [4] | TGI [6] | TGI [7] | TGI [8] | TGI [11] | TGI [12] | TGI [13] | TGI [14] | TGI [15] | TGI [17] | TGI [18] | TGI [19] | TGI [20] | TGI [21] | TGI [22] | TGI [23] | TGI [24] | TGI [25] | TGI [26] | TGI [27] | TGI [28] | TGI [30] | TGI [31] | TGI [33] | TGI [34] | TGI [35] | TGI [37] | TGI [38] | TGI [39] | TGI [41] | TGI [42] | TGI [43] | TGI [44] | TGI [45] | TGI [46] | TGI [48] | TGI [50] | TGI [52] | TGI [53] | TGI [54] | TGI [56] | TGI [57] | TGI [58]
5.19 µM: TGI [16]
6.61 µM: TGI [49]
15.2 µM: TGI [9]
74 µM: TGI [10]
8.82 µM: TGI [55]
11.1 µM: TGI [40]
4.92 µM: TGI [36]
inactive: GI50 [1] 3.77 µM | GI50 [2] 3.65 µM | GI50 [3] 5.59 µM | GI50 [4] 4.39 µM | GI50 [5] 3.07 µM | GI50 [6] 5.2 µM | GI50 [7] 5.02 µM | GI50 [8] 4.08 µM | GI50 [9] 2.81 µM | GI50 [10] 3.95 µM | GI50 [11] 3.61 µM | GI50 [12] 4.18 µM | GI50 [13] 16.9 µM | GI50 [14] 3.49 µM | GI50 [15] 4.94 µM | GI50 [16] 2.38 µM | GI50 [17] 4.29 µM | GI50 [18] 3.33 µM | GI50 [19] 3.04 µM | GI50 [20] 5.54 µM | GI50 [21] 2.75 µM | GI50 [22] 4.1 µM | GI50 [23] 23.3 µM | GI50 [24] 6.8 µM | GI50 [25] 8.71 µM | GI50 [26] 10.4 µM | GI50 [27] 3.51 µM | GI50 [28] 5.7 µM | GI50 [30] 6.05 µM | GI50 [31] 4.91 µM | GI50 [32] 3.79 µM | GI50 [33] 5.45 µM | GI50 [34] 3.79 µM | GI50 [35] 4.4 µM | GI50 [36] 1.73 µM | GI50 [37] 6.28 µM | GI50 [38] 3.74 µM | GI50 [39] 8.11 µM | GI50 [40] 3.29 µM | GI50 [41] 10.4 µM | GI50 [42] 4.83 µM | GI50 [43] 3.69 µM | GI50 [44] 6.94 µM | GI50 [45] 3.65 µM | GI50 [46] 4.19 µM | GI50 [47] 2.31 µM | GI50 [48] 4.23 µM | GI50 [49] 2.54 µM | GI50 [50] 8.33 µM | GI50 [51] 2.08 µM | GI50 [52] 6.92 µM | GI50 [53] 4.87 µM | GI50 [54] 5.62 µM | GI50 [55] 3.04 µM | GI50 [56] 4.26 µM | GI50 [57] 3.92 µM | GI50 [58] 5.85 µM
